Source: patent US12590094B2, “Compounds for the treatment of neurodegenerative and metabolic disorders” (UNIVERSITY OF FLORIDA RESEARCH FOUNDATION, INCORPORATED, priority 2019, dated 2026)
Where two headings read alike, the source gives them in different places.

What was measured:
Experiment in all cases: cells
Cells exposed to TPrP = settings: read-out: Viability EC50
[1] = tested on: PK1 neuroblastoma cells treated with TPrP; type: cell-based; settings: for EC50: Neuroblastoma cell, read-out: Viability EC50
[2] = tested on: PK1 neuroblastoma cells treated with TPrP; type: cell-based; settings: Neuroblastoma cell, read-out: NAD EC50

Row | SMILES | EC50 (Cells exposed to TPrP) [nM] | further results
1 | c1ccc2c(c1)CC(CNc1nnc(Cc3ccncc3)c3ccccc13)CO2 (centres unmarked) [SR-27890] | 140 | 
2 | Cc1c(-c2ccc3c(c2)OCO3)nc2c(C(=O)NCCCn3ccnc3C)cnn2c1C [SR0-31106] | 30 | 
3 | COc1ccc(-c2cc(C(F)(F)F)n3nc(C)c(C(=O)NCCCn4ccnc4C)c3n2)cc1 [SR0-29250] | 3.6 | 
4 | CNC(=O)c1cc(Oc2ccc(NC(=O)Nc3ccc(Cl)c(C(F)(F)F)c3)cc2)ccn1 [sorafenib, reference compound] |  | neuroprotective activity in the TPrP assay [1]: entirely lacked neuroprotective activity
5 | COc1ccc(-c2oc3cc(OC)c(OC)c(OC)c3c(=O)c2OC)cc1OC [SR5-2644, 2-(3,4-dimethoxyphenyl)-3,5,6,7-tetramethoxy-4H-chromen-4-one] |  | EC50 [2]: 1200 nM; EC50 [1]: 620 nM
6 | NS(=O)(=O)c1ccc(Nc2nc(-c3cccnc3)cs2)cc1 [SR1-809850] |  | EC50 [2]: 337 nM; EC50 [1]: 88 nM
7 | CCc1cc(-c2ccc(OC)cc2)nc2c(C(=O)NCCCn3ccnc3)cnn12 [SR3-5310] | 0.6 | 
8 | COc1cc2cc3c4cc(OC)c(OC)cc4cc[n+]3c(C)c2cc1OC [SR5-2641, coralyne chloride] |  | EC50 [2]: 671 nM; EC50 [1]: 507 nM
9 | COc1ccc(-c2cc(C(C)C)n3ncc(C(=O)NCCCn4ccnc4)c3n2)cc1 [SR3-5311] | 0.4 | 
10 | CN(C)S(=O)(=O)c1ccc(Nc2nc(-c3ccncc3)cs2)cc1 [SR-27744] | 60 | 
11 | COc1ccc2c(c1O)-c1c(OC)c(O)cc3c1[C@H](C2)N(C)CC3 [SR1-841246, N-Methyl lindcarpine] |  | EC50 [2]: > 15000 nM; EC50 [1]: 4400 nM
12 | CCNS(=O)(=O)c1ccc(Nc2nc(-c3ccncc3)cs2)cc1 [SR-27784] | 60 | 
13 | Cc1nc(C)c(-c2nc(Nc3ccc(S(N)(=O)=O)cc3)sc2CO)s1 [SR-28551] | 300 | 
14 | NS(=O)(=O)c1ccc(Nc2nc(-c3cc4ccccc4oc3=O)cs2)cc1 [SR1-22833] |  | EC50 [2]: 245 nM; EC50 [1]: 57 nM
15 | NS(=O)(=O)c1ccc(Nc2nc(-c3ccccn3)cs2)cc1 [SR1-477176] |  | EC50 [2]: 891 nM; EC50 [1]: 227 nM
16 | COc1ccc(-c2nnc3c4ccccc4c(C)nn23)cc1S(=O)(=O)N1CCOCC1 [SR5-22837] |  | EC50 [2]: 89 nM; EC50 [1]: 29 nM
17 | CC(O)c1cccc(Nc2nnc(Cc3ccncc3)c3ccccc23)c1 (centres unmarked) [SR-29684] | 2 | 
18 | c1ccc2[nH]c(CNc3nnc(Cc4ccncc4)c4ccccc34)cc2c1 [SR-30006] | 30 | 
19 | Cc1ccc(-c2nnc3c4ccccc4c(C)nn23)cc1S(=O)(=O)NCCO [SR1-87813] |  | EC50 [2]: 733 nM; EC50 [1]: 156 nM
20 | CO/N=C(\C)c1cccc(Nc2nnc(Cc3ccncc3)c3ccccc23)c1 [SR-30014] | 2 | 
21 | C/C(=N\O)c1cccc(Nc2nnc(Cc3ccncc3)c3ccccc23)c1 [SR-30013] | 2 | 

Row | SMILES | EC50 (Cells exposed to TPrP) [nM] | further results
22 | COc1ccc(-c2cc(C(F)(F)F)n3ncc(C(=O)N(C)CCCn4ccnc4)c3n2)cc1 [SR3-5314] | > 16 | 
23 | c1ccc2c(c1)OCC(CNc1nnc(Cc3ccncc3)c3ccccc13)O2 (centres unmarked) [SR1-134003] |  | EC50 [2]: 1200 nM; EC50 [1]: 200 nM
24 | O=c1cc(-c2ccc(O)cc2)oc2cc(O[C@@H]3O[C@H](CO)[C@H](O)[C@H](O)[C@H]3O)cc(O)c12 [SR5-2196, apigenin 7-(β-D-galactopyranosyl) ether] |  | EC50 [2]: > 10000 nM; EC50 [1]: 4600 nM
25 | c1coc(CNc2nnc(Cc3ccncc3)c3ccccc23)c1 [SR-30005] | 15 | 
26 | CCc1nccn1CCCNC(=O)c1cnn2c(C(F)(F)F)cc(-c3ccc(OC)cc3)nc12 [SR0-29244] | 25 | 
27 | Cc1ccc(NS(=O)(=O)c2ccc(Nc3nc(-c4ccncc4)cs3)cc2)cc1 [SR-29446] | > 500 | 
28 | CNS(=O)(=O)c1ccc(Nc2nc(-c3ccncc3)cs2)cc1 [SR-27806] | 60 | 
29 | CCOc1ccc(-c2cc(C)n3ncc(C(=O)NCCCn4ccnc4C)c3n2)cc1 [SR0-29245] | 1.2 | 
30 | c1ccc2c(NCC3CCOCC3)nnc(Cc3ccncc3)c2c1 [SR-30008] | 8 | 
31 | CCCNS(=O)(=O)c1ccc(Nc2nc(-c3ccncc3)cs2)cc1 [SR-27804] | 170 | 
32 | Cc1ccc(NS(=O)(=O)c2ccc(Nc3nc(-c4sc(C)nc4C)cs3)cc2)cc1 [SR-29447] | > 500 | 
33 | Cc1nc(C)c(-c2csc(Nc3ccc(S(=O)(=O)N4CCCC4)cc3)n2)s1 [SR-28545] | > 500 | 
34 | O=S(=O)(c1ccc(Nc2nc(-c3ccncc3)cs2)cc1)N1CCOCC1 [SR-28548] | 170 | 
35 | c1ccc2oc(CNc3nnc(Cc4ccncc4)c4ccccc34)cc2c1 [SR-30011] | 2 | 
36 | Cc1nc(C)c(-c2csc(Nc3ccc(S(=O)(=O)Nc4ccccc4)cc3)n2)s1 [SR-29445] | > 500 | 
37 | NS(=O)(=O)c1ccc(Nc2nc(-c3ccc(S(N)(=O)=O)cc3)cs2)cc1 [SR-29450] | 15 | 
38 | c1ccc2c(c1)CCC2Nc1nnc(Cc2ccncc2)c2ccccc12 (centres unmarked) [SR-27884] | 500 | 
39 | COc1ccc(-c2cc(C(F)(F)F)n3ncc(C(=O)NCCCCn4ccnc4)c3n2)cc1 [SR3-5312] | 6 | 
40 | COc1cc(-c2cc(C)n3ncc(C(=O)NCCCn4ccnc4C)c3n2)cc(OC)c1OC [SR0-29248] | 4 | 
41 | NS(=O)(=O)c1ccc(Nc2nc(-c3ccncc3)c(CO)s2)cc1 [SR-28550] | 60 | 
42 | COc1ccc(-c2cc(C(F)(F)F)n3ncc(C(=O)NCCCn4ccnc4C(F)(F)F)c3n2)cc1 [SR0-28466] | 20 | 

Row | SMILES | EC50 (Cells exposed to TPrP) [nM] | further results
43 | COc1cc2nccc(Oc3ccc(NC(=O)NC4CC4)c(Cl)c3)c2cc1C(N)=O [lenvatinib, reference compound] |  | neuroprotective activity in the TPrP assay [1]: entirely lacked neuroprotective activity
44 | c1ccc2c(c1)CC(Nc1nnc(Cc3ccncc3)c3ccccc13)CO2 (centres unmarked) [SR-27889] | 200 | 
45 | CCCNS(=O)(=O)c1ccc(Nc2nc(-c3sc(C)nc3C)cs2)cc1 [SR-27805] | > 500 | 
46 | c1ccc2[nH]c(CNc3nnc(Cc4ccncc4)c4ccccc34)nc2c1 [SR-27887] | 200 | 
47 | Cc1nc(C)c(-c2csc(Nc3ccc(S(=O)(=O)N4CCOCC4)cc3)n2)s1 [SR-28549] | 400 | 
48 | COc1ccc(-c2cc(C(C)(C)C)n3ncc(C(=O)NCCCn4ccnc4)c3n2)cc1 [SR0-28464] | 1.2 | 
49 | CC1(c2cccc(Nc3nnc(Cc4ccncc4)c4ccccc34)c2)OCCO1 [SR-30012] | 2 | 
50 | COc1ccc(-c2cc(C(F)(F)F)n3ncc(C(=O)NCCCn4ccnc4F)c3n2)cc1 [SR0-28467] | 16 | 
51 | O=S(=O)(Nc1ccc(F)cc1)c1ccc(Nc2nc(-c3ccncc3)cs2)cc1 [SR-29448] | > 500 | 
52 | CNS(=O)(=O)c1ccc(Nc2nc(-c3ccc(S(N)(=O)=O)cc3)cs2)cc1 [SR-29451] | 20 | 
53 | c1ccc2c(c1)OCCC2Nc1nnc(Cc2ccncc2)c2ccccc12 (centres unmarked) [SR-27891] | 200 | 
54 | c1ccc2c(c1)CC(Nc1nnc(Cc3ccncc3)c3ccccc13)C2 [SR-27885] | 200 | 
55 | O=S(=O)(c1ccc(Nc2nc(-c3ccncc3)cs2)cc1)N1CCCCC1 [SR-28546] | 400 | 
56 | CCCCNS(=O)(=O)c1ccc(Nc2nc(-c3ccncc3)cs2)cc1 [SR-27808] | 170 | 
57 | COc1ccc(-c2cc(C)n3ncc(C(=O)NCCCn4ccnc4)c3n2)cc1 [SR3-5170] | 1 | 
58 | Cc1nccn1CCCNC(=O)c1cnn2c(C)cc(-c3ccc(OC(F)(F)F)cc3)nc12 [SR0-29246] | 2 | 
59 | Cc1cc(-c2ccc3c(c2)OCO3)nc2c(C(=O)NCCCn3ccnc3S(C)(=O)=O)cnn12 [SR0-31110] | > 50 | 
60 | COc1ccc(-c2cc(C(F)(F)F)n3ncc(C(=O)NCCn4ccnc4)c3n2)cc1 [SR3-5290] | > 32 | 
61 | COc1ccc(-c2cc(N3CCCC3)n3ncc(C(=O)NCCCn4ccnc4C)c3n2)cc1 [SR0-29249] | 2.2 | 
62 | CCc1c(C(=O)O)ncc2[nH]c3cc(OC)c(OC)cc3c12 [SR26266] | > 4000 | 
63 | CCOC(=O)c1c(CC)ncc2[nH]c3cc(OC)c(OC)cc3c12 [SR26084] | ~10000 | 

Row | SMILES | EC50 (Cells exposed to TPrP) [nM] | further results
64 | O=S(=O)(Nc1ccccc1)c1ccc(Nc2nc(-c3ccncc3)cs2)cc1 [SR-29444] | > 500 | 
65 | CCNS(=O)(=O)c1ccc(Nc2nc(-c3sc(C)nc3C)cs2)cc1 [SR-27785] | 500 | 
66 | Cc1nc(C)c(-c2csc(Nc3ccc(S(=O)(=O)Nc4ccc(F)cc4)cc3)n2)s1 [SR-29449] | > 500 | 
67 | Cc1nc(C)c(-c2csc(Nc3ccc(S(=O)(=O)N4CCCCC4)cc3)n2)s1 [SR-28547] | > 500 | 
68 | c1ccc2c(c1)CC(CNc1nnc(Cc3ccncc3)c3ccccc13)O2 (centres unmarked) [SR-30024] | 8 | 
69 | Cc1nccn1CCCNC(=O)c1cnn2c(C)cc(-c3ccc4c(c3)OCO4)nc12 [SR0-29247] | 2.2 | 
70 | O=S(=O)(c1ccc(Nc2nc(-c3ccncc3)cs2)cc1)N1CCCC1 [SR-28544] | 350 | 
71 | COCc1cc(-c2ccc(OC)cc2)nc2c(C(=O)NCCCn3ccnc3)cnn12 [SR3-5250] | 0.5 | 
72 | c1ccc2oc(CNc3nnc(Cc4ccncc4)c4ccccc34)nc2c1 [SR-27888] | 45 | 
73 | Cc1nc(C)c(-c2csc(Nc3ccc(S(=O)(=O)N(C)C)cc3)n2)s1 [SR-27764] | 70 | 
74 | c1ccc2c(NCC3CCCO3)nnc(Cc3ccncc3)c2c1 (centres unmarked) [SR-30004] | 45 | 
75 | c1ccc(OCCNc2nnc(Cc3ccncc3)c3ccccc23)cc1 [SR-27892] | 500 | 
76 | COc1ccc(-c2cc(C(F)(F)F)n3ncc(C(=O)NCCCn4cnc5ccccc54)c3n2)cc1 [SR3-5313] | > 16 | 
77 | COc1ccc(CNc2nnc(Cc3ccncc3)c3ccccc23)cc1OC [SR-27886] | 140 | 
78 | CCCCNS(=O)(=O)c1ccc(Nc2nc(-c3sc(C)nc3C)cs2)cc1 [SR-27809] | > 500 | 
79 | Cc1nc(N)sc1-c1csc(Nc2ccc(S(N)(=O)=O)cc2)n1 [SR-28552] | 160 | 
80 | c1ccc2oc(Nc3nnc(Cc4ccncc4)c4ccccc34)nc2c1 [SR-30010] | 2 | 
81 | Cc1nccn1CCCNC(=O)c1cnn2c(C(C)(C)C)cc(-c3ccc4c(c3)OCO4)nc12 [SR0-31104] | 10 | 
82 | COc1cc2nccc(Oc3ccc(NC(=O)Nc4cc(C)on4)c(Cl)c3)c2cc1OC [tivozanib, reference compound] |  | neuroprotective activity in the TPrP assay [1]: entirely lacked neuroprotective activity
